The target of one series is Acetylcholinesterase (Electrophorus electricus, UniProt O42275).
A further series can be described thus: in vitro. The conditions noted are these: PAMPA.
The target in another series is Cholinesterase (Equus caballus, UniProt P81908).

A value given as a limit tells only on which side of the number the result lay.

Description for Acetylcholinesterase: Inhibition of Electrophorus electricus AChE using acetylthiocholine chloride as substrate after 15 mins by Ellman's method
Description for in vitro: Permeability of the compound by PAMPA

On to `O=C(CCNCCNc1c2c(nc3ccccc13)CCC2)Nc1ccc2c(c1)C(=O)c1cccc3ccnc-2c13`, for which the values for the IC50 at Acetylcholinesterase and against Cholinesterase were 422 nM and 1760 nM, respectively. The Papp in the series “in vitro” turned out to be 1.9 ×10⁻⁶ cm/s.

As to `O=C(CCNCCNc1c2c(nc3ccccc13)CCCCC2)Nc1ccc2c(c1)C(=O)c1cccc3ccnc-2c13`, the figures for the half-inhibitory concentration (IC50) at Acetylcholinesterase and against Cholinesterase were 51.7 nM and 65 nM, respectively. Further, in the series “in vitro”, the apparent permeability (Papp) is 7.9 ×10⁻⁶ cm/s.

For the molecule `O=C(CNCCNc1c2c(nc3ccccc13)CCCCC2)Nc1ccc2c(c1)C(=O)c1cccc3ccnc-2c13`, the 50% inhibitory concentration (IC50) on Acetylcholinesterase came to 61 nM; on Cholinesterase it was 211 nM. In addition, the Papp in the series “in vitro” came to 4 ×10⁻⁶ cm/s.

For the molecule `Nc1ccc2c(c1)C(=O)c1cccc3ccnc-2c13`, the IC50 on Acetylcholinesterase and on Cholinesterase was above 100000 nM each time.

Regarding `O=C(CNCCNc1c2c(nc3ccccc13)CCC2)Nc1ccc2c(c1)C(=O)c1cccc3ccnc-2c13`, the 50% inhibitory concentration (IC50) is 513 nM on Acetylcholinesterase and 243 nM at Cholinesterase. Moreover, the Papp in “in vitro” was 4.6 ×10⁻⁶ cm/s.

For the molecule `O=C(CCNCCNc1c2c(nc3ccccc13)CCCC2)Nc1ccc2c(c1)C(=O)c1cccc3ccnc-2c13`, the IC50 stood at 3.4 nM at Acetylcholinesterase and 110 nM against Cholinesterase. The Papp in “in vitro” amounted to 2.6 ×10⁻⁶ cm/s.

`O=C(CCNCCCNc1c2c(nc3ccccc13)CCCCC2)Nc1ccc2c(c1)C(=O)c1cccc3ccnc-2c13`: the IC50 came out at 260 nM against Acetylcholinesterase and 21.1 nM against Cholinesterase. In the series “in vitro”, this molecule showed a Papp of 8.9 ×10⁻⁶ cm/s.

For the molecule `O=C(CCNCCCCNc1c2c(nc3ccccc13)CCCCC2)Nc1ccc2c(c1)C(=O)c1cccc3ccnc-2c13`, the figures for the IC50 at Acetylcholinesterase and against Cholinesterase were 745 nM and 150 nM, respectively. Also, the Papp in the series “in vitro” is 1.1 ×10⁻⁶ cm/s.

On to `O=C(CCNCCCNc1c2c(nc3ccccc13)CCCC2)Nc1ccc2c(c1)C(=O)c1cccc3ccnc-2c13`, for which the half-inhibitory concentration (IC50) on Acetylcholinesterase came out at 57.1 nM; against Cholinesterase, 199 nM. This molecule came in with an apparent permeability (Papp) in “in vitro” of 3.3 ×10⁻⁶ cm/s.

`O=C(CNCCNc1c2c(nc3ccccc13)CCCC2)Nc1ccc2c(c1)C(=O)c1cccc3ccnc-2c13`: the 50% inhibitory concentration (IC50) is 41 nM against Acetylcholinesterase and 433 nM on Cholinesterase. The molecule also came in with a Papp in the series “in vitro” of 4.8 ×10⁻⁶ cm/s.

For `O=C(CCNCCCNc1c2c(nc3ccccc13)CCC2)Nc1ccc2c(c1)C(=O)c1cccc3ccnc-2c13`, the IC50 came out at 411 nM against Acetylcholinesterase and 399 nM at Cholinesterase. The Papp in “in vitro” turned out to be 4.9 ×10⁻⁶ cm/s.

With `O=C(CCNCCCCNc1c2c(nc3ccccc13)CCCC2)Nc1ccc2c(c1)C(=O)c1cccc3ccnc-2c13`, the IC50 is 182 nM on Acetylcholinesterase and 288 nM against Cholinesterase. The molecule further showed an apparent permeability coefficient (Papp) in “in vitro” of 2.1 ×10⁻⁶ cm/s.

As to `O=C(CCNCCCCNc1c2c(nc3ccccc13)CCC2)Nc1ccc2c(c1)C(=O)c1cccc3ccnc-2c13`, the IC50 at Acetylcholinesterase amounted to 910 nM; against Cholinesterase, 199 nM. Further, the apparent permeability coefficient (Papp) in “in vitro” turned out to be 2.4 ×10⁻⁶ cm/s.
